Assay results: patent US20220280476A1, “KCNT1 INHIBITORS AND METHODS OF USE” (Praxis Precision Medicines, Inc., priority 2019, published 2022)

What follows are compounds tested against T1, KCNT1 (KNa1.1, Slack) (Homo sapiens, UniProt Q5JUK3) (assay: KCNT1-WT-Basal patch clamp assay (SyncroPatch 384PE, HEK-TREX inducible cell line)). Settings: tetracycline inducible HEK-TREX cells; perforated patch; holding -80 mV, 100 ms step to 0 mV; room temperature; read-out: KCNT1 WB IC50.
T1 construct: expressed in transfected cells; host or cells: HEK-TREX (tetracycline-inducible HEK cell line)
T1 sequence (Q5JUK3 1-1230): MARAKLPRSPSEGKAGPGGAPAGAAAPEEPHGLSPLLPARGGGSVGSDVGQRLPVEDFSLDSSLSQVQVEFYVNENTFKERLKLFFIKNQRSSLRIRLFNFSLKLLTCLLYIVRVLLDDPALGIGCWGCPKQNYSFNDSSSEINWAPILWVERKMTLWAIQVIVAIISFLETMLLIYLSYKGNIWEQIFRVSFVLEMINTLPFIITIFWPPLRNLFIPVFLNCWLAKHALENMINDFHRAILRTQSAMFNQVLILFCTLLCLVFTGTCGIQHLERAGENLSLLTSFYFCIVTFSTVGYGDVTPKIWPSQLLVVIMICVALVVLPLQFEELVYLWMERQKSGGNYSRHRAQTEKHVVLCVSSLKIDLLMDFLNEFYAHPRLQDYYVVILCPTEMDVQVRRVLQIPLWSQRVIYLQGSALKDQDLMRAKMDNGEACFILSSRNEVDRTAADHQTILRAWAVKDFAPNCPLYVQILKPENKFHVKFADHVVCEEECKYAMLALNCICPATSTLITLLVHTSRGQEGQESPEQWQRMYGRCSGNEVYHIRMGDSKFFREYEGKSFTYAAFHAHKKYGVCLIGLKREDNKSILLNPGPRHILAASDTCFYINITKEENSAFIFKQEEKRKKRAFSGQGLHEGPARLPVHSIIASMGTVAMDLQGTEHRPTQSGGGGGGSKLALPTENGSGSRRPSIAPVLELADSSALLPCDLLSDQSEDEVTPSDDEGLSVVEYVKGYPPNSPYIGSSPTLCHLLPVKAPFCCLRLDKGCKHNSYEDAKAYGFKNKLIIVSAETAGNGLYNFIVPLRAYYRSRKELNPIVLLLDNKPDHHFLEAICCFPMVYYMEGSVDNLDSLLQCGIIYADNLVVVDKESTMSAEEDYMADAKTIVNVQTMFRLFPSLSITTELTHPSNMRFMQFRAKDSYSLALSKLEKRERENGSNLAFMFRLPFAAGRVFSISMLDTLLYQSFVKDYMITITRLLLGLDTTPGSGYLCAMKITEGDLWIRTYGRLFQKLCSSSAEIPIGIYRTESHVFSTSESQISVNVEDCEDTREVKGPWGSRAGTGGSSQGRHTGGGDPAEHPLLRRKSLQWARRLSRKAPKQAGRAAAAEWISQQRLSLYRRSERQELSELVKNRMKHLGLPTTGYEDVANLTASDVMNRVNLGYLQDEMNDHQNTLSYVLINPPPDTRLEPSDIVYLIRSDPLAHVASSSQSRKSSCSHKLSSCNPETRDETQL
Type: cell-based
Procedure: KCNT1-WT-Basal—Patch Clamp Assay
Inhibition of KCNT1 (KNa1.1, Slack) was evaluated using a tetracycline inducible cell line (HEK-TREX). Currents were recorded using the SyncroPatch 384PE automated, patch clamp system. Pulse generation and data collection were performed with PatchController384 V1.3.0 and DataController384 V1.2.1 (Nanion Technologies). The access resistance and apparent membrane capacitance were estimated using built-in protocols. Current were recorded in perforated patch mode (10 μM escin) from a population of cells. The cells were lifted, triturated, and resuspended at 800,000 cells/ml. The cells were allowed to recover in the cell hotel prior to experimentation. Currents were recorded at room temperature. The external solution contained the following (in mM): NaCl 105, NMDG 40, KCl 4, MgCl2 1, CaCl2 5 and HEPES 10 (pH=7.4, Osmolarity ˜300 mOsm). The extracellular solution was used as the wash, reference and compound delivery solution. The internal solution contained the following (in mM): NaCl 70, KF 70, KCl 10, EGTA 5, HEPES 5 and Escin 0.01 (pH=7.2, Osmolarity ˜295 mOsm). Escin is made at a 5 mM stock in water, aliquoted, and stored at −20° C. The compound plate was created at 2× concentrated in the extracellular solution. The compound was diluted to 1:2 when added to the recording well. The amount of DMSO in the extracellular solution was held constant at the level used for the highest tested concentration. A holding potential of −80 mV with a 100 ms step to 0 mV was used. Mean current was measured during the step to 0 mV. […] The average mean current from 3 sweeps was calculated and the % inhibition of each compound was calculated. The % Inhibition as a function of the compound concentration was fit with a Hill equation to derive IC50, slope, min and max parameters. If KCNT1 inhibition was less than 50% at the highest tested concentration or if an IC50 could not be calculated, then a percent inhibition was reported in place of the IC50.

Row | SMILES | IC50 [µM]
1 | CS(=O)(=O)Cc1ccc(C(=O)NC2CCc3cc(Cl)ccc32)cc1 (single isomer, unassigned) [Compound II-5, N-(5-chloroindan-1-yl)-4-(methylsulfonylmethyl)benzamide] | ≥ 20
2 | O=C(N[C@@H]1CCc2cc(Cl)ccc21)c1cccc(F)c1O [Compound III-9] | ≤ 1
3 | O=C(N[C@@H]1CCc2cc(Cl)ccc21)c1ccc(S(=O)(=O)N2CCC2)s1 [Compound I-19] | ≤ 1
4 | NC(=O)c1ccc(C(=O)N[C@@H]2CCc3cc(Cl)ccc32)cc1 [Compound II-26] | 1 to 20
5 | Cc1ccc(O)c(C(=O)N[C@@H]2CCc3cc(Cl)ccc32)c1 [Compound III-12] | ≤ 1
6 | CN(C)C(=O)CN(c1ccc(C(=O)N[C@@H]2CCc3cc(Cl)ccc32)cc1)S(C)(=O)=O [Compound II-49] | 1 to 20
7 | NS(=O)(=O)c1c[nH]c(C(=O)N[C@@H]2CCc3cc(Cl)ccc32)c1 [Compound I-14] | ≥ 20
8 | CC(=O)Nc1cccc(C(=O)N[C@@H]2CCc3cc(Cl)ccc32)c1O [Compound III-16] | ≤ 1
9 | COc1ccc(C(=O)NC2CCc3cc(Cl)ccc32)cc1 (single isomer, unassigned) [Compound II-7, N-(5-chloroindan-1-yl)-4-methoxy-benzamide] | ≥ 20
10 | CCS(=O)(=O)Nc1ccc(C(=O)N[C@H]2CCc3cc(Cl)ccc32)cc1 [Compound II-17, N-[(1S)-5-chloroindan-1-yl]-4-(ethylsulfonylamino)benzamide] | ≥ 20
11 | Cc1oc(C(=O)N[C@@H]2CCc3cc(Cl)ccc32)cc1S(N)(=O)=O [Compound I-9] | 1 to 20
12 | CS(=O)(=O)Nc1ccc(C(=O)N[C@@H]2CCc3cc(Cl)ccc32)cc1 [Compound II-4, N-[(1R)-5-chloroindan-1-yl]-4-(methanesulfonamido)benzamide] | ≤ 1
13 | COCCS(=O)(=O)c1ccc(C(=O)N[C@@H]2CCc3cc(Cl)ccc32)cc1 [Compound II-40] | 1 to 20
14 | O=C(N[C@@H]1CCc2cc(Cl)ccc21)c1ccc(S(=O)(=O)CC(F)F)cc1 [Compound II-51] | 1 to 20
15 | CO[C@@H]1CCN(S(=O)(=O)c2ccc(C(=O)N[C@@H]3CCc4cc(Cl)ccc43)s2)C1 [Compound I-46] | ≤ 1
16 | Cc1cc(C(=O)N[C@@H]2CCc3cc(Cl)ccc32)ccc1S(C)(=O)=O [Compound II-48] | 1 to 20
17 | CS(=O)(=O)Cc1ccc(C(=O)NC2CCc3cc(Cl)ccc32)cc1 (single isomer, unassigned) [Compound II-6, N-(5-chloroindan-1-yl)-4-(methylsulfonylmethyl)benzamide] | 1 to 20
18 | COc1ccc(C(=O)NC2CCc3cc(Cl)ccc32)c(O)c1 (single isomer, unassigned) [Compound III-2, N-(5-chloroindan-1-yl)-2-hydroxy-4-methoxy-benzamide] | ≤ 1
19 | O=C(N[C@@H]1CCc2cc(Cl)ccc21)c1ccc(S(=O)(=O)N2CC[C@H](O)C2)s1 [Compound I-41] | ≤ 1
20 | CNS(=O)(=O)c1ccc(C(=O)N[C@@H]2CCc3cc(Cl)ccc32)s1 [Compound I-16] | ≤ 1
21 | CNC(=O)c1ccc(C(=O)N[C@@H]2CCc3cc(Cl)ccc32)cc1 [Compound II-24] | 1 to 20
22 | NS(=O)(=O)c1csc(C(=O)N[C@@H]2CCc3cc(Cl)ccc32)c1 [Compound I-5] | 1 to 20
23 | CS(=O)(=O)c1ccc(C(=O)N[C@@H]2CCc3cc(Cl)ccc32)c(F)c1 [Compound II-36] | 1 to 20

Row | SMILES | IC50 [µM]
24 | CN(C)S(=O)(=O)c1ccc(C(=O)N[C@@H]2CCc3cc(Cl)ccc32)s1 [Compound I-15] | ≤ 1
25 | O=C(N[C@@H]1CCc2cc(Cl)ccc21)c1ccc(S(=O)(=O)N2CCOCC2)s1 [Compound I-45] | ≤ 1
26 | NS(=O)(=O)c1ccc(C(=O)N[C@@H]2CCc3cc(Cl)ccc32)s1 [Compound I-4] | ≤ 1
27 | O=C(N[C@@H]1CCc2cc(Cl)ccc21)c1c(O)cccc1F [Compound III-8] | 1 to 20
28 | CN(c1ccc(C(=O)N[C@@H]2CCc3cc(Cl)ccc32)cc1)S(=O)(=O)C1CC1 [Compound II-14] | ≤ 1
29 | O=C(N[C@@H]1CCc2cc(Cl)ccc21)c1cc(Cl)ccc1O [Compound III-11] | ≤ 1
30 | O=C(N[C@@H]1CCc2cc(Cl)ccc21)c1ccc(S(=O)(=O)N2CC[C@@H](O)C2)s1 [Compound I-40] | ≤ 1
31 | NS(=O)(=O)c1ccc(C(=O)N[C@@H]2CCc3cc(Cl)ccc32)o1 [Compound I-3] | 1 to 20
32 | O=C(N[C@@H]1CCc2cc(Cl)ccc21)c1ccc(F)cc1 (single isomer, unassigned) [Compound II-31] | ≥ 20
33 | O=C(N[C@@H]1CCc2cc(Cl)ccc21)c1cccc(C(F)(F)F)c1O [Compound III-10] | ≤ 1
34 | CS(=O)(=O)Nc1ccc(C(=O)NC2CCCc3cc(Cl)ccc32)cc1 (single isomer, unassigned) [Compound II-53, N-(6-chlorotetralin-1-yl)-4-(methanesulfonamido)benzamide] | ≤ 1
35 | NS(=O)(=O)c1ccc(C(=O)N[C@@H]2CCc3cc(Cl)ccc32)cc1 [Compound II-25] | ≤ 1
36 | O=C(N[C@@H]1CCc2cc(Cl)ccc21)c1cccc(Cl)c1O [Compound III-7] | ≤ 1
37 | CS(=O)(=O)c1ccc(C(=O)N[C@@H]2CCc3cc(Cl)ccc32)s1 [Compound I-18] | ≤ 1
38 | CS(=O)(=O)Nc1ccc(C(=O)NC2CCc3cc(F)ccc32)cc1 (single isomer, unassigned) [Compound II-57, N-[5-fluoroindan-1-yl]-4-(methanesulfonamido)benzamide] | 1 to 20
39 | CS(=O)(=O)c1ncc(C(=O)N[C@@H]2CCc3cc(Cl)ccc32)s1 [Compound I-27] | ≤ 1
40 | Cn1nc(C(=O)N[C@@H]2CCc3cc(Cl)ccc32)cc1C1CC1 [Compound I-1] | 1 to 20
41 | CN(c1ccc(C(=O)NC2CCc3cc(Cl)ccc32)cc1)S(C)(=O)=O (single isomer, unassigned) [Compound II-2, N-(5-chloroindan-1-yl)-4-[methyl(methylsulfonyl)amino]benzamide] | ≤ 1
42 | O=C(N[C@@H]1CCc2cc(Cl)ccc21)c1ccc(S(=O)(=O)C2CC2)s1 [Compound I-21] | ≤ 1
43 | CS(=O)(=O)N(CCOC(F)(F)F)c1ccc(C(=O)N[C@@H]2CCc3cc(Cl)ccc32)cc1 [Compound II-46] | ≥ 20
44 | COCCS(=O)(=O)c1ccc(C(=O)N[C@@H]2CCc3cc(Cl)ccc32)s1 [Compound I-47] | ≤ 1
45 | CN1CCN(S(=O)(=O)c2ccc(C(=O)N[C@@H]3CCc4cc(Cl)ccc43)s2)CC1 [Compound I-42] | ≤ 1
46 | O=C(N[C@@H]1CCc2cc(Cl)ccc21)c1ccc(S(=O)(=O)C(F)F)cc1 [Compound II-42] | ≤ 1
